Experimental data taken from patent publication US20050124562A1, “Bis-quinazoline compounds for the treatment of bacterial infections” (priority 2003, published 2005).
Converted amounts (≈) assume the structure as drawn. Where two headings read alike, the source gives them in different places.

Tested on: S. aureus, E. faecalis, S. pyogenes and S. pneumoniae
Assay: Broth microdilution MIC (NCCLS), gram-positive strains
Format: cell-based
Description: Representative bis-quinazolines were tested for antibacterial activity using the […] microdilution method to determine their minimum inhibitory concentrations (MICs). All compounds were tested using standard methods in accordance with NCCLS guidelines (National Committee for Clinical Laboratory Standards. 2003. Methods for dilution antimicrobial susceptibility testing for bacteria that grow aerobically. Approved Standard M-7 A-6, NCCLS, Wayne, Pa.). The bacterial strains used in the susceptibility tests were obtained from the American Type Culture Collection (ATCC) and included resistant phenotypes such as oxacillin-resistant S. aureus (ORSA) and vancomycin-resistant enterococci (VRE). The minimum bactericidal concentrations (MBCs) were determined for selected organisms. The effect of protein binding on the antibacterial activity of representative bis-quinazolines were determined by conducting MIC tests in the presence of human serum.

[1] = range against some strains of S. aureus, E. faecalis, S. pyogenes and S. pneumoniae, read-out: MIC

SMILES | MIC [mg/L] | MIC [1] [mg/L]
COc1ccc2nc(Nc3nc(O)c4cccc(OC)c4n3)nc(C)c2c1 [Example 10, 8-Methoxy-2-(6-methoxy-4-methyl-quinazolin-2-ylamino)-quinazolin-4-ol] | 0.06 to 16 (≈ 0.165 to 44 µM) | –
COc1cc(OC)c2nc(Nc3nc(O)c4cccc(OC)c4n3)nc(C)c2c1 [Example 11, 2-(6,8-Dimethoxy-4-methyl-quinazolin-2-ylamino)-8-methoxy-quinazolin-4-ol] | 0.06 to 16 (≈ 0.153 to 40.7 µM) | –
CCOc1cccc2nc(Nc3nc(C)c4cc(OC)c(OC)cc4n3)nc(O)c12 [Example 13, 2-(6,7-Dimethoxy-4-methyl-quinazolin-2-ylamino)-5-ethoxy-quinazolin-4-ol] | 0.06 to 16 (≈ 0.147 to 39.3 µM) | –
Cc1nc(Nc2nc(O)c3ccccc3n2)nc2cc3c(cc12)OCO3 [Example 15, 2-(8-Methyl-[1,3]dioxolo[4,5-g]quinazolin-6-ylamino)-quinazolin-4-ol] | 0.06 to 16 (≈ 0.173 to 46.1 µM) | –
Cc1nc(Nc2nc(O)c3ccccc3n2)nc2ccc(O)cc12 [Example 16, 2-(4-Hydroxy-quinazolin-2-ylamino)-4-methyl-quinazolin-6-ol] | 0.06 to 16 (≈ 0.188 to 50.1 µM) | –
COc1ccc2nc(Nc3nc(O)c4cccc(C)c4n3)ncc2c1 [Example 20, 2-(6-Methoxy-quinazolin-2-ylamino)-8-methyl-quinazolin-4-ol] | 0.06 to 16 (≈ 0.18 to 48 µM) | –
COc1ccc2nc(Nc3nc(O)c4cc(N)cc(C)c4n3)nc(C)c2c1.O=C(O)C(F)(F)F [Example 22, 6-Amino-2-(6-methoxy-4-methyl-quinazolin-2-ylamino)-8-methyl-quinazolin-4-ol trifluoroacetate salt] | – | 0.06 to 16
COc1ccc([N+](=O)[O-])c2c(C)nc(Nc3nc(O)c4ccccc4n3)nc12.O=C(O)C(F)(F)F [Example 26, 2-(8-Methoxy-4-methyl-5-nitro-quinazolin-2-ylamino)-quinazolin-4-ol trifluoroacetate salt] | – | 0.06 to 16
COc1ccc(OC)c2c(C)nc(Nc3nc(O)c4ccccc4n3)nc12.O=C(O)C(F)(F)F [Example 27, 2-(5,8-Dimethoxy-4-methyl-quinazolin-2-ylamino)-quinazolin-4-ol trifluoroacetate salt] | – | 0.06 to 16
COc1ccc([N+](=O)[O-])c2c(C)nc(Nc3nc(O)c4cc(C)cc(C)c4n3)nc12.O=C(O)C(F)(F)F [Example 30, 2-(8-Methoxy-4-methyl-5-nitro-quinazolin-2-ylamino)-6,8-dimethyl-quinazolin-4-ol, trifluoroacetate salt] | – | 0.06 to 16
COc1cc2c(C)nc(Nc3nc(O)c4ccccc4n3)nc2cc1F.O=C(O)C(F)(F)F [Example 32, 2-(7-Fluoro-6-methoxy-4-methyl-quinazolin-2-ylamino)-quinazolin-4-ol trifluoroacetate salt] | – | 0.06 to 16
CSc1ccc2nc(Nc3nc(O)c4ccccc4n3)nc(C)c2c1.O=C(O)C(F)(F)F [Example 35, 2-(4-Methyl-6-methylsulfanyl-quinazolin-2-ylamino)-quinazolin-4-ol trifluoroacetate salt] | – | 0.06 to 16
COc1ccc2nc(Nc3nc(O)c4c(OC)cccc4n3)nc(C)c2c1.O=C(O)C(F)(F)F [Example 37, 5-Methoxy-2-(6-methoxy-4-methyl-quinazolin-2-ylamino)-quinazolin-4-ol trifluoroacetate salt] | – | 0.06 to 16
COc1cc2nc(Nc3nc(O)c4cc(C)cc(C)c4n3)nc(C)c2cc1OC.O=C(O)C(F)(F)F [Example 41, 2-(6,7-Dimethoxy-4-methyl-quinazolin-2-ylamino)-6,8-dimethyl-quinazolin-4-ol trifluoroacetate salt] | – | 0.06 to 16
COc1ccc(OC)c2c(C)nc(Nc3nc(O)c4cc(C)cc(C)c4n3)nc12.O=C(O)C(F)(F)F [Example 43, 2-(5,8-Dimethoxy-4-methyl-quinazolin-2-ylamino)-6,8-dimethyl-quinazolin-4-ol trifluoroacetate salt] | – | 0.06 to 16
CC(=O)O.COc1cc2c(C)nc(Nc3nc(O)c4cc(C)cc(C)c4n3)nc2cc1F [Example 44, 2-(7-Fluoro-6-methoxy-4-methyl-quinazolin-2-ylamino)-6,8-dimethyl-quinazolin-4-ol acetate salt] | – | 0.06 to 16
COc1ccc2nc(Nc3nc(O)c4ccccc4n3)nc(CF)c2c1.O=C(O)C(F)(F)F [Example 45, 2-(4-Fluoromethyl-6-methoxy-quinazolin-2-ylamino)-quinazolin-4-ol trifluoroacetate salt] | – | 0.06 to 16
COc1cc(OC)c2nc(Nc3nc(O)c4cccc(C)c4n3)nc(C)c2c1.O=C(O)C(F)(F)F [Example 46, 2-(6,8-Dimethoxy-4-methyl-quinazolin-2-ylamino)-8-methyl-quinazolin-4-ol trifluoroacetate salt] | – | 0.06 to 16
COc1ccc2nc(Nc3nc(O)c4cc(N)ccc4n3)nc(C)c2c1.O=C(O)C(F)(F)F [Example 47, 6-Amino-2-(6-methoxy-4-methyl-quinazolin-2-ylamino)-quinazolin-4-ol trifluoroacetate salt] | – | 0.06 to 16
COc1cccc2c(C)nc(Nc3nc(O)c4cc(C)cc(C)c4n3)nc12 [Example 48, 2-(8-Methoxy-4-methyl-quinazolin-2-ylamino)-6,8-dimethyl-quinazolin-4-ol] | 0.06 to 16 (≈ 0.166 to 44.3 µM) | –
CCc1nc(Nc2nc(O)c3ccccc3n2)nc2ccc(OC)cc12 [Example 49, 2-(4-Ethyl-6-methoxy-quinazolin-2-ylamino)-quinazolin-4-ol] | 0.06 to 16 (≈ 0.173 to 46.1 µM) | –
COc1cccc2c(C)nc(Nc3nc(O)c4cccc(C)c4n3)nc12 [Example 51, 2-(8-Methoxy-4-methyl-quinazolin-2-ylamino)-8-methyl-quinazolin-4-ol] | 0.06 to 16 (≈ 0.173 to 46.1 µM) | –
COc1cc2nc(Nc3nc(O)c4ccccc4n3)nc(C)c2cc1OC [Example 52, 2-(6,7-Dimethoxy-4-methyl-quinazolin-2-ylamino)-quinazolin-4-ol] | 0.06 to 16 (≈ 0.165 to 44 µM) | –
COc1cccc2c(C)nc(Nc3nc(O)c4ccccc4n3)nc12 [Example 58, 2-(8-Methoxy-4-methyl-quinazolin-2-ylamino)-quinazolin-4-ol] | 0.06 to 16 (≈ 0.18 to 48 µM) | –
CCOc1cccc2c(C)nc(Nc3nc(O)c4ccccc4n3)nc12 [Example 59, 2-(8-Ethoxy-4-methyl-quinazolin-2-ylamino)-quinazolin-4-ol] | 0.06 to 16 (≈ 0.173 to 46.1 µM) | –
COc1ccc2nc(Nc3nc(O)c4cc(O)ccc4n3)nc(C)c2c1 [Example 60, 2-(6-Methoxy-4-methyl-quinazolin-2-ylamino)-quinazoline-4,6-diol] | 0.06 to 16 (≈ 0.172 to 45.8 µM) | –
COc1ccc2nc(Nc3nc(O)c4cc(OC)ccc4n3)nc(C)c2c1 [Example 61, 6-Methoxy-2-(6-methoxy-4-methyl-quinazolin-2-ylamino)-quinazolin-4-ol] | 0.06 to 16 (≈ 0.165 to 44 µM) | –
COc1ccc2nc(Nc3nc(O)c4cc(OC)c(OC)cc4n3)nc(C)c2c1 [Example 62, 6,7-Dimethoxy-2-(6-methoxy-4-methyl-quinazolin-2-ylamino)-quinazolin-4-ol] | 0.06 to 16 (≈ 0.153 to 40.7 µM) | –
COc1ccc2nc(Nc3nc(O)c4cc(C)ccc4n3)nc(C)c2c1 [Example 63, 2-(6-Methoxy-4-methyl-quinazolin-2-ylamino)-6-methyl-quinazolin-4-ol] | 0.06 to 16 (≈ 0.173 to 46.1 µM) | –
COc1ccc2nc(Nc3nc(O)c4cccc(C)c4n3)nc(C)c2c1 [Example 65, 2-(6-Methoxy-4-methyl-quinazolin-2-ylamino)-8-methyl-quinazolin-4-ol] | 0.06 to 16 (≈ 0.173 to 46.1 µM) | –
